Reference: patent publication US20220289691A1, “5-AMINO-SUBSTITUTED PYRAZOLES AND TRIAZOLES AS PEST CONTROL AGENTS” (Bayer Aktiengesellschaft, priority 2019, published 2022)

Key:
[1] = tested on: Spodoptera frugiperda; test: Spodoptera frugiperda spray test; type: in vivo; conditions: foliar, 168 h, 100 g/ha, maize leaf discs, after 7 days, read-out: efficacy (caterpillars killed)
Experimental: Spodoptera frugiperda—Spray Test Solvent: 78.0 parts by weight of acetone • • 1.5 parts by weight of dimethylformamide Emulsifier: alkylaryl polyglycol ether
(§1) To produce a suitable active compound formulation, 1 part by weight of active compound is dissolved using the stated parts by weight of solvent and made up with water containing an emulsifier concentration of 1000 ppm until the desired concentration is attained. To produce further test concentrations, the formulation is diluted with emulsifier-containing water.
Leaf discs of maize (Zea mays) are sprayed with an active compound formulation of the desired concentration and, after drying, populated with caterpillars of the fall armyworm (Spodoptera frugiperda).
After 7 days, the efficacy in % is determined. 100% means that all the caterpillars have been killed; 0% means that no caterpillar has been killed.

[2] = tested on: Diabrotica balteata; test: Diabrotica balteata spray test; type: in vivo; conditions: 168 h, 500 g/ha (=160 μg/cavity), beetle larvae on wheat, after 7 days, read-out: efficacy (wheat plant growth)
Experimental: Diabrotica balteata—Spray Test Solvent: 78 parts by weight of acetone • • 1.5 parts by weight of dimethylformamide Emulsifier: alkylaryl polyglycol ether
as §1
Pre-swollen wheat grains (Triticum aestivum) are incubated in a multiwell plate filled with agar and a little water for one day (5 seed grains per cavity). The germinated wheat grains are sprayed with an active compound formulation of the desired concentration. Subsequently, each cavity is infected with 10-20 beetle larvae of Diabrotica balteata.
After 7 days, the efficacy in % is determined. 100% means that all wheat plants have grown as in the untreated, uninfected control; 0% means that no wheat plant has grown.

`CC(C)c1ccccc1N1C(=O)CSC1=NN=Cc1ccc(-c2nc(NC3CCOC3)n(-c3ccc(OC(F)(F)F)cc3)n2)cc1` (centres unmarked) [Compound I-069] showed a pest or weed control at 100 g/ha [1] of 100%.
Work on `COc1ccc(C(C)C)c(NC(=S)NN=Cc2ccc(-c3nc(NCCO)n(-c4ccc(OC(F)(F)C(F)(F)F)cc4)n3)cc2)c1` [Compound I-134] yielded a pest or weed control at 100 g/ha [1] of 100%.
Work on `COCCNc1nc(-c2ccc(C=NN=C3SCC(=O)N3c3cc(OC)ccc3C(C)C)cc2)nn1-c1ccc(OC(F)(F)C(F)(F)F)cc1` [Compound I-130] yielded a pest or weed control at 100 g/ha [1] of 100%.
In the case of `CNc1nc(-c2ccc(NC(=O)N=C3SCC(=O)N3c3ccccc3C(C)C)cc2)nn1-c1ccc(OC(F)(F)F)cc1` [Compound I-026], the pest or weed control at 500 g/ha [2] is reported as 80%.
`COCCNc1nc(-c2ccc(C=NN=C3SCC(=O)N3c3ccccc3C(C)C)cc2)nn1-c1ccc(OC(F)(F)C(F)(F)F)cc1` [Compound I-129] gave a pest or weed control at 100 g/ha [1] of 100%.
`CC(=O)Nc1nc(-c2ccc(C=NNC(=S)Nc3c(C)cccc3C)cc2)nn1-c1ccc(OC(F)(F)F)cc1` [Compound I-011] was tested, and the pest or weed control at 100 g/ha [1] was 100%.
`CC(C)c1ccccc1N1C(=O)CSC1=NN=Cc1ccc(-c2nc(NCCO)n(-c3ccc(OC(F)(F)C(F)(F)F)cc3)n2)cc1` [Compound I-138] was tested, and the pest or weed control at 100 g/ha [1] was 100%.
With `COc1ccc(C(C)C)c(NC(=S)NN=Cc2ccc(-c3nc(NCCC#N)n(-c4ccc(OC(F)(F)C(F)(F)F)cc4)n3)cc2)c1` [Compound I-137] the pest or weed control at 100 g/ha [1] was 100%.
In the case of `CC(C)c1ccccc1N1C(=O)CSC1=NN=Cc1ccc(-c2nc(NCCC#N)n(-c3ccc(OC(F)(F)C(F)(F)F)cc3)n2)cc1` [Compound I-141], the pest or weed control at 100 g/ha [1] is reported as 100%.
In the case of `COc1ccc(C(C)C)c(N2C(=O)CSC2=NC(=O)Nc2ccc(-c3nc(NCCC#N)n(-c4ccc(OC(F)(F)C(F)(F)F)cc4)n3)cc2)c1` [Compound I-140], the pest or weed control at 100 g/ha [1] is reported as 100%.
`COCCNc1nc(-c2ccc(C=NNC(=S)Nc3cc(OC)ccc3C(C)C)cc2)nn1-c1ccc(OC(F)(F)C(F)(F)F)cc1` [Compound I-133] was tested, and the pest or weed control at 100 g/ha [1] was 100%.
With `CC(C)c1ccccc1N1C(=O)CSC1=NN=Cc1ccc(-c2nc(NC3CSC3)n(-c3ccc(OC(F)(F)C(F)(F)F)cc3)n2)cc1` [Compound I-101] the pest or weed control at 100 g/ha [1] was 83%.
In the case of `CC(C)c1ccccc1NC(=S)NN=Cc1ccc(-c2nc(NCCO)n(-c3ccc(OC(F)(F)F)cc3)n2)cc1` [Compound I-078], the pest or weed control at 100 g/ha [1] is reported as 100%.
In the case of `CC(C)c1ccccc1N1C(=O)CSC1=NC(=O)Nc1ccc(-c2nc(-n3ccnc3)n(-c3ccc(OC(F)(F)F)cc3)n2)cc1` [Compound I-031], the pest or weed control at 100 g/ha [1] is reported as 100%.
`CC(C)c1ccccc1NC(=S)NN=Cc1ccc(-c2nc(NCCC#N)n(-c3ccc(OC(F)(F)C(F)(F)F)cc3)n2)cc1` [Compound I-136] gave a pest or weed control at 100 g/ha [1] of 100%.
Compound `COCCCNc1nc(-c2ccc(NC(=O)N=C3SCC(=O)N3c3ccccc3C(C)C)cc2)nn1-c1ccc(OC(F)(F)F)cc1` [Compound I-081] has a pest or weed control at 100 g/ha [1] of 100%.
`COCCNc1nc(-c2ccc(C=NN=C3SCC(=O)N3c3ccccc3C(C)C)cc2)nn1-c1ccc(OC(F)(F)F)cc1` [Compound I-076] showed a pest or weed control at 100 g/ha [1] of 100%.
With `CC(C)c1ccccc1NC(=S)NN=Cc1ccc(-c2nc(NCCO)n(-c3ccc(OC(F)(F)C(F)(F)F)cc3)n2)cc1` [Compound I-135] the pest or weed control at 100 g/ha [1] was 100%.
Compound `COCCNc1nc(-c2ccc(C=NNC(=S)Nc3ccccc3C(C)C)cc2)nn1-c1ccc(OC(F)(F)C(F)(F)F)cc1` [Compound I-132] has a pest or weed control at 100 g/ha [1] of 100%.
`COc1ccc(C(C)C)c(N2C(=O)CSC2=NN=Cc2ccc(-c3nc(NCCC#N)n(-c4ccc(OC(F)(F)C(F)(F)F)cc4)n3)cc2)c1` [Compound I-142] gave a pest or weed control at 100 g/ha [1] of 100%.
With `CNc1nc(-c2ccc(C=NN=C3SCC(=O)N3c3ccccc3C(C)C)cc2C)nn1-c1ccc(OC(F)(F)F)cc1` [Compound I-121] the pest or weed control at 100 g/ha [1] was 100%.
Work on `CC(C)c1ccccc1NC(=S)NN=Cc1ccc(-c2nc(NS(=O)(=O)C(F)F)n(-c3ccc(OC(F)(F)F)cc3)n2)cc1` [Compound I-028] yielded a pest or weed control at 100 g/ha [1] of 83%.
With `CC(C)c1ccccc1N1C(=O)CSC1=NN=Cc1ccc(-c2nc(NCCO)n(-c3ccc(OC(F)(F)F)cc3)n2)cc1` [Compound I-089] the pest or weed control at 100 g/ha [1] was 100%.
